Results: patent publication US4578489A (priority 1982, dated 1986)
Where two headings read alike, the source gives them in different places.

Key:
Aspergillus niger = test: Minimum inhibitory concentration against fungi, agar incorporation test, strain K; assay type: cell-based; details: malt extract/agar
In short: (§1)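 MIC (mg/liter) defined as the concentration inhibiting fungal growth from dropwise trace inoculum on malt extract agar containing compound at 2, 5, 10, 50 or 100 mg/liter final.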

Serratia marcencens = test: Minimum inhibitory concentration against bacteria, strain D; assay type: cell-based; details: 24 hours at 30° C.; tested at 100 and 300 mg/liter
In short: (§2)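 Inhibition is judged from sample turbidity in Caso peptone broth containing compound at 100 and 300 mg/liter. Inocula come from overnight cultures diluted 1/1000 in saline and a further 1/1000 in broth; incubation lasts 24 hours at 30° C. with shaking.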

Bacillus subtilis = test: Minimum inhibitory concentration against bacteria, strain F; assay type: cell-based; details: 24 hours at 30° C.; tested at 100 and 300 mg/liter
In short: as §2

Candida albicans = test: Minimum inhibitory concentration against fungi, agar incorporation test, strain P; assay type: cell-based; details: malt extract/agar
In short: as §1

Endomyces geotrichum = test: Minimum inhibitory concentration against fungi, agar incorporation test, strain Q; assay type: cell-based; details: malt extract/agar
In short: as §1

Chlorella vulgaris = test: Action against algae: Chlorella vulgaris; assay type: cell-based; parameters: key: --: no growth on the agar, 3 ppm have destroyed the algae in 6 hours; details: 3 mg/liter
In short: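 14-day cultures diluted 1/200 in nutrient medium received compound at 3 mg/liter final. After 6 h, samples were spotted on algae/agar for algicidal action; growth inhibition in medium and killing on agar assessed visually after 14 days under 14 h light/10 h dark.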

Pseudomonas aeruginosa = test: Minimum inhibitory concentration against bacteria, strain B; assay type: cell-based; details: 24 hours at 30° C.; tested at 100 and 300 mg/liter
In short: as §2

[1] = tested on: Cladosporium cladosporioides; test: Minimum inhibitory concentration against fungi, agar incorporation test, strain O; assay type: cell-based; details: malt extract/agar
In short: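 Compounds incorporated into malt extract agar at final concentrations of 2, 5, 10, 50 and 100 mg/liter, with fungal traces added dropwise. Value is the concentration (mg/liter) required to inhibit fungal growth.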

Aureobasidium pullulans [2] = test: Growth on wood; parameters: key: 1: growth on the wood; 2: slight growth on the wood; 3: no growth on the wood; 4: no growth on the wood and an inhibitory zone; details: 28°, 4 weeks
Description: Small blocks of spruce wood, 7×10×10 mm in size, are dried in vacuo. The small blocks are then vacuum-impregnated by keeping them, in vacuo, in 100 ml of distilled water+biocide for 30 minutes and then subjecting them to a pressure treatment (2 atmospheres gauge by means of compressed air) for 18 hours in the water. The pieces of wood treated in this way are first subjected to leaching in running water and are then dried.
The dried pieces of wood are placed on potato/glucose agar and the wood, as well as the surrounding agar, is inoculated with 0.1 ml of a spore suspension of Aureobasidium pullulans. After incubation at 28° for 4 weeks, the growth is evaluated in accordance with the following rating: […]

Enterobacter aerogenes = test: Minimum inhibitory concentration against bacteria, strain C; assay type: cell-based; details: 24 hours at 30° C.; tested at 100 and 300 mg/liter
In short: as §2

Aureobasidium pullulans [3] = test: Minimum inhibitory concentration against fungi, agar incorporation test, strain R; assay type: cell-based; details: malt extract/agar
In short: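 Compounds incorporated in malt extract agar at final 2, 5, 10, 50 and 100 mg/liter. Agar inoculated dropwise with traces of fungus. Value is the concentration (mg/liter) needed to inhibit growth.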

[4] = tested on: Alcaligenes denitrificans; test: Minimum inhibitory concentration against bacteria, strain E; assay type: cell-based; details: 24 hours at 30° C.; tested at 100 and 300 mg/liter
In short: as §2

Proteus vulgaris = test: Minimum inhibitory concentration against bacteria, strain A; assay type: cell-based; details: 24 hours at 30° C.; tested at 100 and 300 mg/liter
In short: as §2

Chaetomium globosum = test: Minimum inhibitory concentration against fungi, agar incorporation test, strain S; assay type: cell-based; details: malt extract/agar
In short: as §1

Artemia salina = test: Action against Artemia salina nauplii; assay type: in vivo; parameters: key: 0: no change; 1: slight change; 1-2: animals are attacked; 2: animals are strongly attacked; 2-3: animals are nearly all dead; 3: animals are all dead
Description: The eggs, which are available commercially, are caused to hatch by vigorous aeration. When 2-3 days old, the nauplii are exposed to the products at various concentrations (concentrations tested: 2.5; 1; 0.5 and 0.25 mg/liter) in synthetic seawater, and are observed over a prolonged period of time.

[5] = tested on: mixed culture of bacteria; assay type: cell-based; parameters: key: +: growth, no destruction; (+): growth less than that of control (>10 colonies), slight destruction; (-): slight growth (1-10 colonies); -: no growth, destruction
[6] = tested on: Enteromorpha intestinalis; test: Action against Enteromorpha intestinalis: destruction (minimum killing concentration); assay type: in vivo; details: 4 hours in seawater, then 6-8 weeks in fresh seawater
Description: (§3) The action against the green alga Enteromorpha, which is the most important in seawter fouling, is investigated in sterile-filtered seawater containing an Erd-Schreiber solution. This solution is composed of a nutrient extract, phosphate and nitrate. The incubation of Enteromorpha intestinalis is carried out in a light thermostat at 18° C. under an alternation of 14 hours of light and 10 hours of darkness.
The algae which have been cultured in this way are exposed to the products under investigation for a short time (4 hours) in seawater. The minimum killing concentration (MKC) is determined by taking the algae out of the seawater containing a specific quantity of algicide, after the treatment time in the latter, washing the algae and investigating growth or mortality after incubation in fresh seawater for a further period of 6-8 weeks.
The minimum killing concentration (MKC) indicates the amount of substance required to cause such damage to the algae within a specific time that they can no longer recover in fresh seawater and die out.

Alternaria alternata = test: Minimum inhibitory concentration against fungi, agar incorporation test, strain N; assay type: cell-based; details: malt extract/agar
In short: as §1

Penicillium funiculosum = test: Minimum inhibitory concentration against fungi, agar incorporation test, strain M; assay type: cell-based; details: malt extract/agar
In short: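 Compounds incorporated into malt extract agar at final 2, 5, 10, 50 and 100 mg/liter, then inoculated dropwise with fungus. Value is the concentration (mg/liter) inhibiting growth.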

Aspergillus phoenicis = test: Minimum inhibitory concentration against fungi, agar incorporation test, strain L; assay type: cell-based; details: malt extract/agar
In short: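 Agar incorporation test in malt extract agar with compound at final 2, 5, 10, 50 and 100 mg/liter, inoculated dropwise with fungus; value is concentration (mg/liter) inhibiting growth.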

[7] = tested on: Enteromorpha intestinalis; test: Action against Enteromorpha intestinalis: inhibitory concentration (MIC); assay type: in vivo; details: seawater containing biocide for entire test; concentration tested 0.5 mg/liter
Description: as §3
For determining the inhibitory concentration (MIC), the algae are kept in seawater containing biocide for the entire duration of the test (concentration tested: 0.5 mg/liter).

CCCCCCCCCCCCCC[N+](C)(C)Cc1ccccc1.CCC[CH2][Sn-]([Cl])([Cl])([CH2]CCC)[CH2]CCC [Example 2, dimethyl-benzyl-tetradecylammonium tributyldichlorostannate-(IV)]
MIC against fungi, strain K (Aspergillus niger): 2 µg/mL | MIC against bacteria, strain D (Serratia marcencens): 100 µg/mL | MIC against bacteria, strain F (Bacillus subtilis): 100 µg/mL | MIC against fungi, strain P (Candida albicans): 5 µg/mL | MIC against fungi, strain Q (Endomyces geotrichum): 5 µg/mL | Growth on the agar (algae-destroying action) (Chlorella vulgaris; 6 hours exposure, 14 days incubation): -- | Growth in the medium (growth inhibition) (Chlorella vulgaris; 14 days): -- | MIC against bacteria, strain B (Pseudomonas aeruginosa): 100 µg/mL | MIC against fungi, strain O [1]: 2 µg/mL | growth on wood, leached for 5 days (Aureobasidium pullulans [2]; 0.01 % in H2 O): 4 | growth on wood, not leached (Aureobasidium pullulans [2]; 0.01 % in H2 O): 4 | growth on wood, leached for 5 days (Aureobasidium pullulans [2]; 0.05 % in H2 O): 4 | growth on wood, not leached (Aureobasidium pullulans [2]; 0.05 % in H2 O): 4 | MIC against bacteria, strain C (Enterobacter aerogenes): 100 µg/mL | MIC against fungi, strain R (Aureobasidium pullulans [3]): 2 µg/mL | MIC against bacteria, strain E [4]: 100 µg/mL | MIC against bacteria, strain A (Proteus vulgaris): 100 µg/mL | MIC against fungi, strain S (Chaetomium globosum): 2 µg/mL | Action against Artemia salina (Artemia salina; 0,5 mg/l, 6 hours): 1-2 | Action against Artemia salina (Artemia salina; 0,5 mg/l, 24 hours): 2-3 | Action against Artemia salina (Artemia salina; 0,5 mg/l, 48 hours): 3 | Action against Artemia salina (Artemia salina; 0,25 mg/l, 6 hours): 0-1 | Action against Artemia salina (Artemia salina; 0,25 mg/l, 24 hours): 2 | Action against Artemia salina (Artemia salina; 0,25 mg/l, 48 hours): 2-3 | Action against Artemia salina (Artemia salina; 1 mg/l, 6 hours): 2 | Action against Artemia salina (Artemia salina; 1 mg/l, 24 hours): 3 | Action against Artemia salina (Artemia salina; 1 mg/l, 48 hours): 3 | Action against Artemia salina (Artemia salina; 2,5 mg/l, 6 hours): 2-3 | Action against Artemia salina (Artemia salina; 2,5 mg/l, 24 hours): 3 | Action against Artemia salina (Artemia salina; 2,5 mg/l, 48 hours): 3 | Growth (destruction of a mixed culture of bacteria) ([5]; 5 mg/l, culture diluted 1/1000 in Tyrode): + | Growth (destruction of a mixed culture of bacteria) ([5]; 5 mg/l, culture diluted 1/10000 in Tyrode): + | Growth (destruction of a mixed culture of bacteria) ([5]; 10 mg/l, culture diluted 1/1000 in Tyrode): + | Growth (destruction of a mixed culture of bacteria) ([5]; 10 mg/l, culture diluted 1/10000 in Tyrode): + | Growth (destruction of a mixed culture of bacteria) ([5]; 30 mg/l, culture diluted 1/1000 in Tyrode): (+) (growth less than that of control (>10 colonies), slight destruction) | Growth (destruction of a mixed culture of bacteria) ([5]; 30 mg/l, culture diluted 1/10000 in Tyrode): - | Growth (destruction of a mixed culture of bacteria) ([5]; 60 mg/l, culture diluted 1/1000 in Tyrode): (+) (growth less than that of control (>10 colonies), slight destruction) | Growth (destruction of a mixed culture of bacteria) ([5]; 60 mg/l, culture diluted 1/10000 in Tyrode): - | Growth (destruction of a mixed culture of bacteria) ([5]; 100 mg/l, culture diluted 1/1000 in Tyrode): (-) (slight growth (1-10 colonies)) | Growth (destruction of a mixed culture of bacteria) ([5]; 100 mg/l, culture diluted 1/10000 in Tyrode): - | Destruction, 5 mg/liter [6]: yes | MIC against fungi, strain N (Alternaria alternata): 2 µg/mL | MIC against fungi, strain M (Penicillium funiculosum): 2 µg/mL | MIC against fungi, strain L (Aspergillus phoenicis): 2 µg/mL | MIC [7]: 0.5 µg/mL
